Data: ChEMBL document CHEMBL3885861, “Open TG-GATES”

Organism: Rattus norvegicus
Test: Open TG-GATES - Regimen: Daily Repeat
Format: toxicity, organism-based, Sprague-Dawley
Set-up: regimen Daily Repeat, gender Male, age 6 weeks
Settings: in vivo, po, route gavage; for KIDNEY_L / KIDNEY_R / KIDNEY_TOTAL: tissue Kidney; for AST / CRE / GLC / IP / K / LDH / RALB / TBIL / TC / TP / gamma-GTP: tissue Plasma
[1] = 0 mg/kg, 72 h, dose level Control, time 3 day
[2] = 0 mg/kg, 72 h, tissue Blood, dose level Control, time 3 day
[3] = 0 mg/kg, […], dose level Control, time 7 day
[4] = 0 mg/kg, […], dose level Control, time 14 day
[5] = 0 mg/kg, […], dose level Control, time 28 day
[6] = 0 mg/kg, […], tissue Blood, dose level Control, time 7 day
[7] = 0 mg/kg, […], tissue Blood, dose level Control, time 14 day
[8] = 0 mg/kg, […], tissue Blood, dose level Control, time 28 day
[9] = 10 mg/kg, 72 h, dose level Low, time 3 day
[10] = 10 mg/kg, 72 h, tissue Blood, dose level Low, time 3 day
[11] = 10 mg/kg, […], dose level Low, time 7 day
[12] = 10 mg/kg, […], dose level Low, time 14 day
[13] = 10 mg/kg, […], dose level Low, time 28 day
[14] = 10 mg/kg, […], tissue Blood, dose level Low, time 7 day
[15] = 10 mg/kg, […], tissue Blood, dose level Low, time 14 day
[16] = 10 mg/kg, […], tissue Blood, dose level Low, time 28 day

In the case of `CN(C)CCCN1c2ccccc2CCc2ccccc21` [IMIPRAMINE], the TERMINAL_BW [1] is reported as 230.9 g, the APTT [2] is reported as 16.3 s and the Bas [2] is reported as 0%. The Eos [2] was 1%, the Fbg [2] was 278.8 mg/dL and the Ht [2] was 40.6%. The Lym [2] was 77.8%, the MCHC [2] was 32.6% and the MCV [2] was 63.2 fL. It also gave a Mono [2] of 3%, a PT [2] of 15.8 s and a Plat [2] of 111.4 x10_4/uL. For the same compound, the RBC [2] was 642.2 x10_4/ul, the Ret [2] was 6.7% and the KIDNEY_L [1] was 1 g. For the same compound, the KIDNEY_R [1] was 1 g, the KIDNEY_TOTAL [1] was 2 g and the AST [1] was 68.2 IU/L. The CRE [1] was 0.2 mg/dL, the GLC [1] was 180.6 mg/dL and the IP [1] was 7.7 mg/dL. For the same compound, the K [1] was 4.2 meq/L, the LDH [1] was 64.8 IU/L and the RALB [1] was 2.6 g/dL. The TBIL [1] was 0.056 mg/dL, the TC [1] was 79.2 mg/dL and the TP [1] was 5.7 g/dL. It also gave a gamma-GTP [1] of 1 IU/L, a TERMINAL_BW [3] of 270.9 g and a TERMINAL_BW [4] of 328.3 g. It also gave a TERMINAL_BW [5] of 419.8 g, an APTT [6] of 15.4 s and a Bas [6] of 0.2%. It also gave an Eos [6] of 1%, a Fbg [6] of 292 mg/dL and a Ht [6] of 41.2%. The Lym [6] was 77.4%, the MCHC [6] was 32.9% and the MCV [6] was 63.5 fL. It also gave a Mono [6] of 2.4%, a PT [6] of 15.4 s and a Plat [6] of 123.5 x10_4/uL. For the same compound, the RBC [6] was 649.4 x10_4/ul, the Ret [6] was 6.1% and the APTT [7] was 16 s. For the same compound, the Bas [7] was 0.4%, the Eos [7] was 0.8% and the Fbg [7] was 279.4 mg/dL. It also gave a Ht [7] of 42.1%, a Lym [7] of 79.2% and an MCHC [7] of 33.2%. For the same compound, the MCV [7] was 60.6 fL, the Mono [7] was 1.8% and the PT [7] was 15.6 s. For the same compound, the Plat [7] was 119.8 x10_4/uL, the RBC [7] was 695.6 x10_4/ul and the Ret [7] was 4.6%. The APTT [8] was 15.9 s, the Bas [8] was 0% and the Eos [8] was 1.2%. For the same compound, the Fbg [8] was 294.2 mg/dL, the Ht [8] was 44.1% and the Lym [8] was 80.6%. The MCHC [8] was 33.5%, the MCV [8] was 57.9 fL and the Mono [8] was 2.2%. It also gave a PT [8] of 15.4 s, a Plat [8] of 94.4 x10_4/uL and an RBC [8] of 761.4 x10_4/ul. The Ret [8] was 2.4%, the KIDNEY_L [3] was 1.1 g and the KIDNEY_R [3] was 1.1 g. For the same compound, the KIDNEY_TOTAL [3] was 2.2 g, the KIDNEY_L [4] was 1.3 g and the KIDNEY_R [4] was 1.2 g. The KIDNEY_TOTAL [4] was 2.5 g, the KIDNEY_L [5] was 1.4 g and the KIDNEY_R [5] was 1.4 g. The KIDNEY_TOTAL [5] was 2.9 g, the AST [3] was 66.2 IU/L and the CRE [3] was 0.2 mg/dL. The GLC [3] was 185.6 mg/dL, the IP [3] was 7.7 mg/dL and the K [3] was 4 meq/L. It also gave an LDH [3] of 114 IU/L, an RALB [3] of 2.6 g/dL and a TBIL [3] of 0.056 mg/dL. It also gave a TC [3] of 81.4 mg/dL, a TP [3] of 5.9 g/dL and a gamma-GTP [3] of 0.4 IU/L. For the same compound, the AST [4] was 63.6 IU/L, the CRE [4] was 0.2 mg/dL and the GLC [4] was 183.8 mg/dL. For the same compound, the IP [4] was 6.8 mg/dL, the K [4] was 4.2 meq/L and the LDH [4] was 97.4 IU/L. The RALB [4] was 2.6 g/dL, the TBIL [4] was 0.05 mg/dL and the TC [4] was 72.6 mg/dL. It also gave a TP [4] of 5.9 g/dL, a gamma-GTP [4] of 1 IU/L and an AST [5] of 55.6 IU/L. The CRE [5] was 0.2 mg/dL, the GLC [5] was 188.8 mg/dL and the IP [5] was 6.9 mg/dL. It also gave a K [5] of 3.9 meq/L, an LDH [5] of 43.4 IU/L and an RALB [5] of 2.8 g/dL. For the same compound, the TBIL [5] was 0.056 mg/dL, the TC [5] was 68 mg/dL and the TP [5] was 6.3 g/dL. For the same compound, the gamma-GTP [5] was 0.6 IU/L, the TERMINAL_BW [9] was 229.5 g and the APTT [10] was 16.1 s. It also gave a Bas [10] of 0%, an Eos [10] of 1% and a Fbg [10] of 294 mg/dL. The Ht [10] was 41.4%, the Lym [10] was 82.6% and the MCHC [10] was 32.5%. It also gave an MCV [10] of 65.4 fL, a Mono [10] of 2.8% and a Neu [10] of 12.8%. The PT [10] was 15.9 s, the Plat [10] was 115.2 x10_4/uL and the RBC [10] was 633 x10_4/ul. It also gave a Ret [10] of 5.6%, a KIDNEY_L [9] of 1 g and a KIDNEY_R [9] of 1 g. For the same compound, the KIDNEY_TOTAL [9] was 2 g, the AST [9] was 67 IU/L and the CRE [9] was 0.2 mg/dL. It also gave a GLC [9] of 185.4 mg/dL, an IP [9] of 7.7 mg/dL and a K [9] of 4.1 meq/L. The LDH [9] was 63.4 IU/L, the RALB [9] was 2.6 g/dL and the TBIL [9] was 0.06 mg/dL. It also gave a TC [9] of 81.6 mg/dL, a TP [9] of 5.8 g/dL and a gamma-GTP [9] of 1 IU/L. It also gave a TERMINAL_BW [11] of 262.8 g, a TERMINAL_BW [12] of 310.9 g and a TERMINAL_BW [13] of 402.9 g. For the same compound, the APTT [14] was 15.6 s, the Bas [14] was 0% and the Eos [14] was 1.2%. For the same compound, the Fbg [14] was 291.6 mg/dL, the Ht [14] was 40.2% and the Lym [14] was 80%. For the same compound, the MCHC [14] was 33.3%, the MCV [14] was 62.5 fL and the Mono [14] was 1.8%. It also gave a PT [14] of 15.9 s, a Plat [14] of 120.1 x10_4/uL and an RBC [14] of 644.6 x10_4/ul. The Ret [14] was 4.8%, the APTT [15] was 16.5 s and the Bas [15] was 0.2%. It also gave an Eos [15] of 0.8%, a Fbg [15] of 281.2 mg/dL and a Ht [15] of 41.8%. It also gave a Lym [15] of 83.2%, an MCHC [15] of 33.8% and an MCV [15] of 60.5 fL. The Mono [15] was 2.2%, the PT [15] was 16.3 s and the Plat [15] was 108.3 x10_4/uL. The RBC [15] was 691.6 x10_4/ul, the Ret [15] was 4.1% and the APTT [16] was 17.3 s. For the same compound, the Bas [16] was 0.4%, the Eos [16] was 1.4% and the Fbg [16] was 284.6 mg/dL. It also gave a Ht [16] of 43.7%, a Lym [16] of 81.4% and an MCHC [16] of 34%. It also gave an MCV [16] of 56.5 fL, a Mono [16] of 2.4% and a PT [16] of 16.4 s. The Plat [16] was 96.2 x10_4/uL, the RBC [16] was 773.2 x10_4/ul and the Ret [16] was 2.3%. It also gave a KIDNEY_L [11] of 1.1 g, a KIDNEY_R [11] of 1.1 g and a KIDNEY_TOTAL [11] of 2.1 g. The KIDNEY_L [12] was 1.3 g, the KIDNEY_R [12] was 1.2 g and the KIDNEY_TOTAL [12] was 2.5 g. For the same compound, the KIDNEY_L [13] was 1.4 g, the KIDNEY_R [13] was 1.3 g and the KIDNEY_TOTAL [13] was 2.7 g. The AST [11] was 63.8 IU/L, the CRE [11] was 0.2 mg/dL and the GLC [11] was 182.6 mg/dL. The IP [11] was 7.4 mg/dL, the K [11] was 4.2 meq/L and the LDH [11] was 123.4 IU/L. The RALB [11] was 2.6 g/dL, the TBIL [11] was 0.05 mg/dL and the TC [11] was 75.8 mg/dL. For the same compound, the TP [11] was 5.9 g/dL, the gamma-GTP [11] was 0.8 IU/L and the AST [12] was 66.4 IU/L. For the same compound, the CRE [12] was 0.2 mg/dL, the GLC [12] was 175.6 mg/dL and the IP [12] was 6.8 mg/dL. The K [12] was 4.3 meq/L, the LDH [12] was 62.8 IU/L and the RALB [12] was 2.7 g/dL. For the same compound, the TBIL [12] was 0.048 mg/dL, the TC [12] was 72 mg/dL and the TP [12] was 6.2 g/dL. For the same compound, the gamma-GTP [12] was 0.4 IU/L, the AST [13] was 62.2 IU/L and the CRE [13] was 0.2 mg/dL. For the same compound, the GLC [13] was 183.2 mg/dL, the IP [13] was 6.9 mg/dL and the K [13] was 3.8 meq/L. For the same compound, the LDH [13] was 53.6 IU/L, the RALB [13] was 2.8 g/dL and the TBIL [13] was 0.052 mg/dL. For the same compound, the TC [13] was 64.2 mg/dL, the TP [13] was 6.3 g/dL and the gamma-GTP [13] was 1 IU/L.
